Results as given in US6825230B2, “Spiro and dispiro 1,2,4-trixolane antimalarials” (Medicines for Malaria Venture MMV, priority 2002, dated 2004).
Converted amounts (≈) assume the structure as drawn. Where two headings read alike, the source gives them in different places.

Key:
P. berghei ANKA strain [1] = assay: Onset of action and recrudescence experiment, single 100 mg/kg po; assay type: in vivo, Plasmodium berghei; settings: single 100 mg/kg po (SSV) on day +3 post-infection; recrudescence = >5% parasitemia; followed up to 60 days; groups of five
Description: The onset of drug action was determined after a single fixed dose of 100 mg/kg (SSV vehicle) po to groups of five animals on day +3 post-infection (day 0).
(§1) Moro NMRI male mice (Fu Albino specific pathogen free) weighing 18±2 g were infected intravenously (i.v.) with 2×10^7 P. berghei ANKA strain-infected erythrocytes from donor mice on day 0 of the experiment. From donor mice with circa 30% parasitemia, heparinized blood was taken and diluted in physiological saline to 10^8 parasitized erythrocytes per ml. An aliquot (0.2 ml) of this suspension was injected i.v. into experimental and control groups of mice. […] Throughout the experiments, mice were kept in groups of three or five animals in Makrolon type II cages in an air-conditioned animal room at 22 to 23° C.

[2] = tested on: ANKA strain of P. berghei; assay: Single dose STI in vivo screen in infected mice; set-up: species or system Plasmodium berghei; settings: for Survival (days) 10 mg/kg SSV po: single 10 mg/kg po in SSV; for Survival (days) 10 mg/kg SSV po / Survival (days) 10 mg/kg po / Survival (days) 10 mg/kg sc: untreated 6-7 days; for Survival (days) 10 mg/kg po: single 10 mg/kg po in 3% ethanol and 7% Tween 80; for Activity (%) 10 mg/kg po: single 10 mg/kg po in 3% ethanol and 7% Tween 80 on day 1 post-infection; for Activity (%) 10 mg/kg po / Activity (%) 10 mg/kg SSV po / Activity (%) 10 mg/kg sc: percent reduction in parasitemia on day 3; for Activity (%) 10 mg/kg SSV po: single 10 mg/kg po in standard suspending vehicle (SSV) on day 1 post-infection; for Survival (days) 10 mg/kg sc: single 10 mg/kg sc in 3% ethanol and 7% Tween 80; for Activity (%) 10 mg/kg sc: single 10 mg/kg sc in 3% ethanol and 7% Tween 80 on day 1 post-infection
[3] = tested on: ANKA strain of Plasmodium berghei; assay: Single dose ED50/ED90/ED99 determination in infected mice; assay type: in vivo; settings: single dose po in SSV on day 1 post-infection, parasitemia day 3, nonlinear fitting; for ED50: Plasmodium berghei, po
Description: In the single dose ED50/ED98/ED99 determinations, Moro SPF or NMRI mice (group of three) infected with the ANKA strain of Plasmodium berghei were treated on day one post-infection. […] The SSV consists of 0.5% w/v CMC, 0.5% v/v benzyl alcohol, 0.4% v/v Tween 80, and 0.9% w/v sodium chloride in water. Antimalarial activity was measured by percent reduction in parasitemia on day three post-infection. The ED50/ED90 values were calculated by nonlinear fitting.
The ED50, ED90, and ED99 values were calculated by non-linear fitting with statistical program and were expressed in mg/kg.

P. berghei ANKA strain [4] = assay: Divided 3x10 mg/kg vs single 1x30 mg/kg po dose in infected mice; assay type: in vivo, Plasmodium berghei
Description: as §1
They were administered per os (p.o.) in a total volume of 0.01 ml per gram of mouse. The activity of the compound was determined by a variety of methods outlined in subsequent sections. Survival time was also recorded, and survival to day 30 post-infection was considered to be a cure.
The first experiment conducted consisted of administration of a divided 3×10 mg/kg p.o. dose administered on days 1, 2, and 3 post-infection vs. a single 1×30 mg/kg po dose administered on day 1 post-infection. On day 4 post-infection, blood smears of all animals were prepared and stained with Giemsa. […] Compounds were administered orally in the SSV vehicle.

[5] = tested on: chloroquine-sensitive NF54 strain of P. falciparum; assay: In vitro antimalarial semiautomated microdilution assay ([3H]-hypoxanthine incorporation), NF54 strain; assay type: cell-based, Plasmodium falciparum; settings: Plasmodium falciparum
In short: (§2)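 IC50 comes from Logit regression of [3H]-hypoxanthine incorporation data. Intraerythrocytic P. falciparum taken from asynchronous stock cultures is exposed to OZ compounds in a semiautomated microdilution format.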

[6] = tested on: chloroquine-resistant K1 strain of P. falciparum; assay: In vitro antimalarial semiautomated microdilution assay ([3H]-hypoxanthine incorporation), K1 strain; assay type: cell-based, Plasmodium falciparum; settings: Plasmodium falciparum
In short: as §2

P. berghei ANKA strain [7] = assay: Divided 3x3 mg/kg and 3x1 mg/kg po doses in infected mice; assay type: in vivo, Plasmodium berghei
In short: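 Male NMRI mice were infected i.v. with 2×10^7 P. berghei-parasitized erythrocytes on day 0, then dosed orally in SSV vehicle on days 1, 2 and 3 post-infection.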

[8] = tested on: Schistosoma mansoni 21-day-old schistosomules; assay: Effect on 21-day-old schistosomules in infected mice; assay type: in vivo; settings: single 200 mg/kg per os, 21-day-old schistosomules; for % reduction of schistosomule growth at day 21 after per os application of 200 mg/kg, FWR (%): female worm reduction rate; for % reduction of schistosomule growth at day 21 after per os application of 200 mg/kg, TWR (%): total worm reduction rate
Description: Mice were infected with 100 Schistosoma mansoni cercariae on day 21 post-treatment. Each group was treated per os with trioxolanes at a single dose of 200 mg/kg. […] All groups were killed 4 weeks after treatment and the liver and intestine were removed and separated. The liver and intestine were compressed and alive male and female worms could be seen and counted. The effect of the compounds was evaluated by mean total and female worm burden.

[9] = tested on: Schistosoma mansoni adult worms (49-day-old); assay: Effect on adult schistosomes (49-day-old) in infected mice; assay type: in vivo; settings: for % reduction of adult worms growth at day 49 after per os application of 400 mg/kg, TWR (%) / Adult worms day 49, per os 400 mg/kg, DEAD WORM (%): single 400 mg/kg per os
Description: Mice were infected with 100 Schistosoma mansoni cercariae on day 49 post-treatment. Each group was treated per os with OZ compounds at single doses of 200, 400, and 600 mg/kg. Untreated mice served as the control. All groups were killed 4 weeks after treatment and the liver and intestine were removed and separated. The liver and intestine were compressed and alive male and female worms could be seen and counted.

[10] = Pharmacokinetics in dogs (IV and oral dosing); settings: in vivo, dog; for bioavailability: some values marked (V), not defined
Source text: (§3) Artesunate is listed as a reference compound.

P. berghei ANKA strain [11] = assay: Prophylactic activity, single 100 mg/kg po at various times before infection; assay type: in vivo, Plasmodium berghei
Description: as §1
Prophylactic activities of the compounds were compared after administering po single dose of 100 mg/kg to different groups of five animals at various times before infection. All groups including an untreated control group, were then infected at the same time. Parasitemia was determined for each animal on day 3 post-infection, and percent of reduction of the level of parasitemia compared to levels for animals given no drug is determined.

[12] = Pharmacokinetics in rats (IV and oral dosing); settings: rat, in vivo
Source text: as §3

[13] = 49-day-old adults, total worm reduction rate
[14] = percentage of dead worm in the liver
[15] = NF54, 72 h, read-out: IC50 (ng/ml) NF54, chloroquine-sensitive NF54 strain, 72 h incubation
[16] = K1, 72 h, read-out: IC50 (ng/ml) K1, chloroquine-resistant K1 strain, 72 h incubation

Compound	Time of Recrudescence (P. berghei ANKA strain [1])	Survival (days) 10 mg/kg SSV po [2]	ED99 [3]	ED90 [3]	% reduction of adult worms growth at day 49 after per os application of 400 mg/kg, TWR (%) [9, 13]	Adult worms day 49, per os 400 mg/kg, DEAD WORM (%) [9, 14]	Survival (days) 10 mg/kg po [2]	Activity (%) 10 mg/kg po [2]	Activity (%) 10 mg/kg SSV po [2]	Survival (days) 10 mg/kg sc [2]	Activity (%) 10 mg/kg sc [2]	further results
CCO[C@H]1O[C@@H]2O[C@@]3(C)CC[C@H]4[C@H](C)CC[C@@H]([C@H]1C)[C@@]24OO3 [Arteether, arteether, reference compound]	11.4 days											
CCN(CC)CCCC(C)Nc1ccnc2cc(Cl)ccc12 (stereo not shown) [CQ, chloroquine, reference compound]	17.8 days	9.0 days	5.9 mg/kg									Survival (days) 3 mg/kg SSV po ([2]; single 3 mg/kg po in SSV): 8.0 days; Cures 3 × 10 mg/kg p.o. SSV (P. berghei ANKA strain [4]; 10 mg/kg po on days 1, 2, 3, cure = survival to day 30 post-infection): 0/5; Survival (days) 3 × 10 mg/kg p.o. SSV (P. berghei ANKA strain [4]; 10 mg/kg po on days 1, 2, 3 post-infection): 14.3 days; Survival (days) 1 × 30 mg/kg p.o. SSV (P. berghei ANKA strain [4]; single 30 mg/kg po on day 1 post-infection): 9.5 days; Cures 1 × 30 mg/kg p.o. SSV (P. berghei ANKA strain [4]; single 30 mg/kg po, cure = survival to day 30 post-infection): 0/5; IC50 ([5]; NF54, 72 h, read-out: IC50 (ng/ml) NF54): 4.4 ng/mL (≈ 13.8 nM); IC50 ([6]; K1, 72 h, read-out: IC50 (ng/ml) K1): 76 ng/mL (≈ 238 nM); Survival (P. berghei ANKA strain [7]; 3 × 1 mg/kg p.o. SSV on days 1, 2, 3 post-infection): 7.2 days; Survival (P. berghei ANKA strain [7]; 3 × 3 mg/kg p.o. SSV on days 1, 2, 3 post-infection): 10 days
CC1(C)COC2(CCC3(CC2)OOC2(O3)C3CC4CC(C3)CC2C4)OC1 (stereo not shown) [OZ11]	22.2 days		8.2 mg/kg	6.2 mg/kg	16%	4%						% reduction of schistosomule growth at day 21 after per os application of 200 mg/kg, FWR (%) [8]: 84%; % reduction of schistosomule growth at day 21 after per os application of 200 mg/kg, TWR (%) [8]: 85%
O=C(O)CC1CCC2(CC1)OOC1(O2)C2CC3CC(C2)CC1C3 (stereo not shown) [OZ78]	11.2 days		17 mg/kg	9.1 mg/kg	0%	17%						% reduction of schistosomule growth at day 21 after per os application of 200 mg/kg, FWR (%) [8]: 87%; % reduction of schistosomule growth at day 21 after per os application of 200 mg/kg, TWR (%) [8]: 82%; % reduction of adult worms growth at day 49 after per os application of 200 mg/kg, TWR (%) ([9]; single 200 mg/kg per os, 49-day-old adults, total worm reduction rate): 24%; Adult worms day 49, per os 200 mg/kg, DEAD WORM (%) ([9]; single 200 mg/kg per os, percentage of dead worm in the liver): 29%; % reduction of adult worms growth at day 49 after per os application of 600 mg/kg, TWR (%) ([9]; single 600 mg/kg per os, 49-day-old adults, total worm reduction rate): 0%; Adult worms day 49, per os 600 mg/kg, DEAD WORM (%) ([9]; single 600 mg/kg per os, percentage of dead worm in the liver): 14%
c1ccc(C[C@H]2CC[C@]3(CC2)OOC2(O3)C3CC4CC(C3)CC2C4)cc1 (stereo partly shown) [OZ156]	> 60 days	10.3 days	4.7 mg/kg	2.6 mg/kg	0%	6%	17.0 days	99.98%	98.8%	19.7 days	99.98%	ED50 [3]: 1.3 mg/kg; IC50 [5, 15]: 2.1 ng/mL (≈ 5.92 nM); IC50 [6, 16]: 2.1 ng/mL (≈ 5.92 nM)
O=C(C[C@H]1CC[C@]2(CC1)OOC1(O2)C2CC3CC(C2)CC1C3)NO (stereo partly shown) [OZ175]	13.0 days	12.3 days	9.9 mg/kg	6.2 mg/kg			10.0 days	99.1%	97%	8.7 days	92%	ED50 [3]: 3.5 mg/kg; IC50 [5, 15]: 2 ng/mL (≈ 5.93 nM); IC50 [6, 16]: 1.4 ng/mL (≈ 4.15 nM)
NC(=O)CNC[C@H]1CC[C@]2(CC1)OOC1(O2)C2CC3CC(C2)CC1C3 (stereo partly shown) [OZ256]		8.7 days			10%	19%	8.7 days	99.70%	99.67%	9.7 days	99.95%	half-life ([10]; IV 10 mg/kg): 1.42 h; half-life ([10]; oral 10 mg/kg): 1.38 h; bioavailability ([10]; oral 10 mg/kg, read-out: Dog Oral Bioavailability 10 mg/kg): 42%; bioavailability ([10]; oral 25 mg/kg, read-out: Dog Oral Bioavailability 25 mg/kg): 38.3%; Prophylactic Activity (%) 72 h (P. berghei ANKA strain [11]; po, 100 mg/kg): 13%; Prophylactic Activity (%) 24 h (P. berghei ANKA strain [11]; single 100 mg/kg po 24 h before infection, parasitemia reduction on day 3 post-infection): 82%; Prophylactic Activity (%) 48 h (P. berghei ANKA strain [11]; single 100 mg/kg po 48 h before infection, parasitemia reduction on day 3 post-infection): 29%; Prophylactic Activity (%) 0 h (P. berghei ANKA strain [11]; single 100 mg/kg po at 0 h, parasitemia reduction on day 3 post-infection): 100%; IC50 ([5]; chloroquine-sensitive NF54 strain, 72 h incubation, read-out: IC50 (ng/ml) NF54): 0.2 ng/mL (≈ 0.571 nM); IC50 ([6]; chloroquine-resistant K1 strain, 72 h incubation, read-out: IC50 (ng/ml) K1): 0.3 ng/mL (≈ 0.856 nM); half-life ([12]; iv, 10 mg/kg): 1.57 h; bioavailability ([12]; po, 10 mg/kg): 18.6%; bioavailability ([12]; po, 25 mg/kg): 51.9%; half-life ([12]; po, 25 mg/kg): 1.22 h
